Read-outs that look alike come from different tables or passages of the source.
How the values were obtained:
PC12 cells = experiment: Neuroprotective activity against Aβ25-35 induced PC12 cell death by MTT assay; assay type: cell-based; conditions: for Cell viability: Aβ25-35-induced cell damage in PC12 cells, control = 1.000, model (Aβ25-35) = 0.633, test concentration not given; for EC50: Rattus norvegicus
Protocol: Meanwhile, all isolated compounds were evaluated for their neuroprotective potency against the Aβ25-35 induced PC12 cell death by MTT assay.
A cell viability assay was conducted to test the cytotoxic effects of the compounds on PC12 cells. Meanwhile, the neuroprotective activity of all compounds against the Aβ25-35 induced PC12 cell death by MTT assay. PC12 cells were divided into four groups: normal control, model, positive control (Resveratrol), and isolates intervention groups (1, 10, 20, 40, 60, 80, 100 μmol/L). Detailed experimental procedures and experimental data can be found in the Supporting Information.
Cell culture. […] The cells were maintained at 37°C in a humidified atmosphere containing 5% CO2. The culture medium was replaced every three days, and the cells were passaged when they reached 70% confluency.
Preparation of Aβ25-35. Aβ25-35 was dissolved in sterile double-distilled water to prepare a 2 mM stock solution. The solution was then incubated at 37°C for 7 days to induce aggregation.
MTT assay for cell viability. PC12 cells were divided into four groups: normal control, model, positive control (Resveratrol), and isolates intervention groups (1, 10, 20, 40, 60, 80, 100 μmol/L). The cells were seeded in 96-well plates at an appropriate density with 200 μL medium per well and were cultured for 24 hours. The positive control and intervention groups were pretreated with different concentrations of drug-containing medium for 2 hours, after which 2 μL of Aβ25-35 was added to each well of the model, positive control, and intervention groups for 24 hours. After the treatment, 20 μL of […] MTT solution was added to each well and incubated for 4 hours. The medium was then removed, and 150 μL of DMSO was added to each well. The plate was shaken until the formazan product was completely dissolved. The absorbance was measured at 570 nm using a spectrophotometer.

[1] = biological target: acetylcholinesterase (AChE) (Homo sapiens, UniProt P22303); experiment: biochemical
Protocol: The first and the main class of drugs currently used for AD are the AChE inhibitors and are widely used for the symptomatic treatment of mild-moderate AD [2]. All alkaloids were screened toward AChE via improved Ellman’s method (Supporting Information).
The compounds were prepared in DMSO and diluted in buffer solution to different concentrations. In a 96-well plate, 140 μL of PBS (pH = 8) buffer, 20 μL of all the sample solutions were transferred in each well, and 20 μL of 0.2 U/mL AChE solution were added. The mixture was incubated at 37°C for 10 minutes. Subsequently, 10 μL of 3 mM 5,5'-dithiobis-(2-nitrobenzoic acid) (DTNB) and 10 μL of 15 mM acetylthiocholine (ATCl) were added, followed by reaction at 37 °C for 20 minutes. […] Each experimental group was set up with three replicate wells, and huperzine A was used as the positive control.

[2] = PC-12, against Aβ25-35-induced PC12 cell damage, MTT, resveratrol as positive control, read-out: EC50 (μM), neuroprotective effect
[3] = PC-12, read-out: EC50 (μM), neuroprotective effect

Chain of acetylcholinesterase (AChE) (P22303 32-614, species assumed): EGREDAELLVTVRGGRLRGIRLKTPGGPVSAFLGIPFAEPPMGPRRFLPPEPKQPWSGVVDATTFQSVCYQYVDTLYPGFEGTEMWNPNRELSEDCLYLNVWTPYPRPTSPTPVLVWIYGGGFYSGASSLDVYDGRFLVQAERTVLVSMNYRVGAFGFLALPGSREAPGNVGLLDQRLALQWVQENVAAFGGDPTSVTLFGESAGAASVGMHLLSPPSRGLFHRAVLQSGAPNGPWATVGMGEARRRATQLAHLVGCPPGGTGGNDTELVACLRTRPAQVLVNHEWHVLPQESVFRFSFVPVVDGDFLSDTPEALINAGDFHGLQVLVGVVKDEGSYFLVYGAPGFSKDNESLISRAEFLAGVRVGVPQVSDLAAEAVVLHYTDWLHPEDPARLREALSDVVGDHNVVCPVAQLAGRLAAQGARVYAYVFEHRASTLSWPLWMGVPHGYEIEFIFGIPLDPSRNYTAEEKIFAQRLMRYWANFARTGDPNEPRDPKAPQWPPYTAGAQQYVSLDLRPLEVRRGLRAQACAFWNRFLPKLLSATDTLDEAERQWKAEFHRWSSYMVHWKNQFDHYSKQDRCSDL

Row | Structure (SMILES) | Cell viability (PC12 cells; MTT) | other results
1 | C[C@@H]1N2CCCC[C@H]2[C@@]23C[C@H](C=C4CCCN1[C@@H]42)[C@@H]1CCCCN1C3 [Compound 4, (−)-ormohenin D] | 0.629 ± 0.013 | 
2 | CC1N2CCCCC2C23CC(CC4CCCN1C42)C1CCCCN1C3 (racemic) [Compound 2, (±)-Ormohenin B] | 0.693 ± 0.024 | 
3 | C1CC[C@@H]([C@@]23C[C@H](C[C@H]4CCCN[C@@H]42)[C@@H]2CCCCN2C3)NC1 (racemic) [Compound 6, (±)-ormosanine] | 0.704 ± 0.038 | 
4 | O=c1cccc2n1C[C@H]1C[C@@H]2CN2CC=CC[C@@H]12 [Compound 8, (7S,9S,11S)-15,16-dehydroanagyrine] | 0.662 ± 0.041 | 
5 | Oc1ccc(/C=C/c2cc(O)cc(O)c2)cc1 [Resveratrol, reference compound] | 0.82 ± 0.039 | EC50 (PC12 cells; [2]): 5.99 µM
6 | O=C1CC=C[C@@H]2[C@@H]3C[C@H](CN12)[C@H]1CCCCN1C3 [Compound 7, (6R,7S,9S,11R)-4,5-dehydro-α-isolupanine] | 0.650 ± 0.009 | 
7 | CC1N2CCCCC2C23CC(CC4CCCN1C42)C1CCCCN1C3 (racemic) [Compound 1, (±)-Ormohenin A] | 0.641 ± 0.009 | 
8 | O=C1CCC[C@@H]2[C@@H]3C[C@H](CN12)[C@H]1CCCCN1C3 [Compound 11, (+)-α-isolupanine] | 0.653 ± 0.027 | 
9 | O=c1cccc2n1C[C@H]1C[C@@H]2CN2CCCC[C@@H]12 [Compound 10, (+)-anagyrine] | 0.645 ± 0.011 | 
10 | O=C1CCC[C@@H]2[C@@H]3C[C@H](CN12)[C@@H]1CCCCN1C3 [Compound 9, (+)-lupanine] | 0.974 ± 0.065 | EC50 (PC12 cells; [3]): 10.4 µM
11 | CC1N2CCCCC2C23CC(CC4CCCN1C42)C1CCCCN1C3 (single isomer, unassigned; (-)) [Compound 3, (−)-ormohenin C] | 0.899 ± 0.061 | EC50 (PC12 cells; [2]): 15.5 µM; IC50 ([1]; improved Ellman's method, huperzine A as positive control, read-out: AChE inhibitory activity IC50): 142 ± 19.6 µM
12 | C1CC[C@H]([C@@]23C[C@H](C[C@H]4CCCN[C@@H]42)[C@@H]2CCCCN2C3)NC1 (racemic) [Compound 5, (±)-18-epiormosanine] | 0.698 ± 0.032 | 
13 | O=c1cccc2n1C[C@@H]1CNC[C@H]2C1 [Compound 12, (+)-cytisine] | 0.934 ± 0.031 | EC50 (PC12 cells; [3]): 7.99 µM; IC50 [1]: 6.85 ± 1.2 µM

From publication PMC12378240, “(+)-/(−)-Ormohenins A and B, two pairs of ormosanine-type enantiomers and their derivatives with neuroprotective activity from Ormosia henryi Prain” (Natural Products and Bioprospecting, 2025)
